Values quoted from earlier work, collected in patent publication US20240139231A1, “METFORMIN COMPOSITIONS AND METHODS FOR TREATMENT OF DIABETES” (priority 2018, published 2024).

Columns and labels:
[1] = 500 mg/day co-administered with metformin, 12 weeks

| SMILES | time to maximum effect (blood glucose levels; depending on the dose) | low threshold dose at which effects on blood glucose levels become significant (blood glucose levels; in vivo) | time until effects begin to appear after the user starts taking the medication (blood glucose levels; in vivo) [h] | reduction of blood sugar levels, HbA1c measure, relative to metformin in combination with a placebo (type 2 diabetes mellitus; [1]) [%] | reduction of blood sugar levels, fasting measure, relative to metformin in combination with a placebo (type 2 diabetes mellitus; [1]) [%] | reduction of blood sugar levels, post-prandial measure, relative to metformin in combination with a placebo (type 2 diabetes mellitus; [1]) | effect on blood sugar when co-administered in lower amounts (type 2 diabetes mellitus; lower amounts, earlier reports by others) |
| --- | --- | --- | --- | --- | --- | --- | --- |
| CN(C)C(=N)NC(=N)N [metformin, Metformin] | within four to five days | 1,500 mg/day | ≤ 48 | – | – | – | – |
| O=C1O[C@H]([C@@H](O)CO)C(O)=C1O [ascorbic acid] | – | – | – | 1.5 | 7 | ca. 3% | no effect |
